Results on 4 molecules are retold here after patent US11406683B2, “Compounds and therapeutics uses thereof” (Centauri Therapeutics Limited (GB/GB), priority 2017, dated 2022).

Experiment [1] relates to Pseudomonas Aeruginosa PA01 (ATCC 15692). The experiment in a line: Flow cytometric antibody recruitment assay using an anti-Rhamnose antibody. The class given is cell-based. The settings on record: 40 μM substance; MFI (PE) over vehicle control; human anti-Rhamnose IgG polyclonal antibody 42 μg/mL; binding to bacterial surface. The protocol:
Flow Cytometric Antibody Recruitment Assay Using an Anti-Rhamnose Antibody
A secondary fluorescently labelled anti-IgG antibody was used to detect the anti-Rhamnose antibody binding.
The assays were carried out in polystyrene 96-well U bottom plates (Costar) blocked with 200 μl of Casein blocking buffer for 1 hour at room temperature (Fisher 37528). Pseudomonas Aeruginosa PA01 (ATCC 15692) was grown in LB broth, Miller (Fisher BP1426-500) to late exponential phase. Subsequently, the bacteria were washed once with Hank's Balanced Salt Solution with calcium and magnesium (HBSS+/+) and then resuspended in HBSS+/+ at a bacterial density of 2×10^9 colony forming units (CFU)/mL. […] The bacteria were then washed three times with 200 μL HBSS+/+, prior to adding 50 μL of the human anti Rhamnose IgG polyclonal antibody at a final concentration of 42 μg/mL in HBSS+/+. The samples were incubated for 1 hour at room temperature shaking at 450 rpm. The bacteria were washed three times as above, prior to adding 100 μL of a PE-labeled anti-human IgG Fc secondary antibody (Biolegend 409304) at 10 μg/mL in HBSS+/+ and incubating at room temperature for 1 hour at 450 rpm. After three final washes with 200 μL HBSS+/+, the bacteria were resuspended in 200 μL HBSS+/+ and evaluated for anti-Rhamnose antibody binding on a Cytoflex flow cytometer (Beckman Coulter). 50,000 counts of bacterial particles were sampled and the median fluorescent shift was recorded in the PE-A channel. Data from all samples were analysed using Kaluza software (Beckman Coulter).
The fold shift over background was calculated by dividing the Median Fluorescent Intensity (MFI) obtained in the presence of 40 μM of the Example compounds by the MFI value obtained in the vehicle controls, i.e., the absence of Examples. The higher the fold shift over background, the more anti-Rhamnose was bound to the bacterial surface. The shift in fluorescence intensity (PE) occurs due to the binding event at each end of the molecule.
For orientation: Flow cytometry measures light scatter and fluorescence of single cells or particles in a stream.

In experiment [2] the test system is E. coli K1:O18ac:H7 (ATCC 700973). The experiment in a line: Flow cytometric complement deposition assay with human serum. The class given is cell-based. The settings on record: MFI (APC) over vehicle, 25% pooled human serum, 37° C., 20 min; for C3b deposition (5 μM, Average fold change): 5 μM compound, C3b/iC3b on bacterial surface. The protocol: Flow Cytometric Complement Deposition Assay with Human Serum
The assays were carried out in polystyrene 96-well U bottom plates (Costar). E. coli K1:O18ac:H7 (American Type Culture Collection, ATCC 700973) was grown in LB broth, Miller (Fisher BP1426-500) to late exponential phase. Subsequently, the bacteria were washed in Hank's Balanced Salt Solution with calcium and magnesium (HBSS+/+) and then resuspended in assay buffer, i.e., PBS with 1% bovine serum albumin (BSA, Sigma A2153) at a concentration of 2×10^9 CFU/mL. […] Subsequently, 150 μL ice-cold HBSS+/+ was added, the bacteria were pelleted and then washed once with 200 μL HBSS+/+, prior to adding 100 μL of pooled human serum (Innovate Research IPLA-CSER) as anti-Rhamnose antibody and complement source in PBS, 1% BSA to a final serum concentration of 25%. Bacteria were incubated at 37° C. for 20 min to allow for anti-Rhamnose binding to the compounds and complement deposition. 100 μL ice-cold HBSS+/+ was added to each well to stop the reaction. The bacteria were pelleted by centrifugation at 4° C. and the supernatants discarded. The bacteria were then washed two times with 200 μL refrigerated HBSS+/+, prior to adding 100 μL of APC-labelled anti-human C3b/iC3b antibody (Biolegend 846106; clone 3E7/C3b) at 1:25 dilution in PBS, 1% BSA and incubated at 4° C. for 45 min. After three final washes with 200 μL HBSS+/+, the bacteria were resuspended in HBSS+/+ and their fluorescence profile as an indicator for complement deposition evaluated on a Cytoflex flow cytometer (Beckman Coulter). The median fluorescent intensity (MFI) was recorded in the APC channels. Data from all samples were analysed using Kaluza software (Beckman Coulter).
The fold shift over background was calculated by dividing the MFI obtained in the presence of the Examples (5 μM) by the MFI obtained in the absence of Examples, i.e., in the presence of vehicle. The shift in fluorescence intensity (APC) occurred due to detection of covalently bound complement components C3b/iC3b to the surface of the bacteria.

Bridge positions count the residues as written; N and C are the ends. Square brackets hold non-standard residues; d marks the D form. Side chains are listed from the residue outwards. Peptide text beside a SMILES is read from it. * marks the point of attachment. X1 = C[C@@H]1OC(OCCCC(=O)NCCNC(=O)COc2cc(OCC(=O)NCCNC(=O)CCCOC3O[C@@H](C)C(O)C(O)[C@@H]3O)cc(-c3cc(OCC(=O)NCCNC(=O)CCCOC4O[C@@H](C)C(O)C(O)[C@@H]4O)cc(C(=O)*)c3)c2)[C@@H](O)C(O)C1O; X3 = C[C@@H]1OC(OCCCC(=O)NCCNC(=O)COc2ccc(-c3cccc(C(=O)*)c3)cc2)[C@@H](O)C(O)C1O; Gly(octyl) = CCCCCCCC[C@H](N)C(=O)O; Nonanoyl = CCCCCCCCC(=O)*; X2 = CC[C@H](C)CCCCC(=O)*; Dab = NCC[C@H](N)C(=O)O; Ahx = NCCCCCC(=O)O

As to `CCCCCCCC[C@H](NC(=O)CCCCCNC(=O)CCCCCNC(=O)c1cc(OCC(=O)NCCNC(=O)CCCOC2O[C@@H](C)C(O)C(O)[C@@H]2O)cc(-c2cc(OCC(=O)NCCNC(=O)CCCOC3O[C@@H](C)C(O)C(O)[C@@H]3O)cc(OCC(=O)NCCNC(=O)CCCOC3O[C@@H](C)C(O)C(O)[C@@H]3O)c2)c1)C(=O)N[C@@H](CCN)C(=O)N[C@H](C(=O)N[C@@H](CCN)C(=O)N[C@H]1CCNC(=O)[C@H]([C@@H](C)O)NC(=O)[C@H](CCN)NC(=O)[C@H](CCN)NC(=O)[C@H](CC(C)C)NC(=O)[C@@H](Cc2ccccc2)NC(=O)[C@H](CCN)NC1=O)[C@@H](C)O` (some centres unmarked) [Example 2] ({X1-Ahx-Ahx}-[Gly(octyl)][Dab]T[Dab][Dab][Dab][dF]L[Dab][Dab]T; lactam 5-C), the “IgG Recruitment (40 μM, Average fold change)” value in experiment [1] is on record as 3.4 fold change. The “C3b deposition (5 μM, Average fold change)” value in experiment [2] was found to be 148.1 fold change.

For the molecule `CCCCCCCC[C@H](NC(=O)CCCCCNC(=O)CCCCCNC(=O)c1cccc(-c2ccc(OCC(=O)NCCNC(=O)CCCOC3O[C@@H](C)C(O)C(O)[C@@H]3O)cc2)c1)C(=O)N[C@@H](CCN)C(=O)N[C@H](C(=O)N[C@@H](CCN)C(=O)N[C@H]1CCNC(=O)[C@H]([C@@H](C)O)NC(=O)[C@H](CCN)NC(=O)[C@H](CCN)NC(=O)[C@H](CC(C)C)NC(=O)[C@@H](Cc2ccccc2)NC(=O)[C@H](CCN)NC1=O)[C@@H](C)O` (some centres unmarked) [Example 1] ({X3-Ahx-Ahx}-[Gly(octyl)][Dab]T[Dab][Dab][Dab][dF]L[Dab][Dab]T; lactam 5-C), the “IgG Recruitment (40 μM, Average fold change)” value in experiment [1] was 77.7 fold change. For the same molecule, the “C3b deposition (5 μM, Average fold change)” value in experiment [2] is listed as 109.8 fold change.

For `CCCCCCCCC(=O)N[C@@H](CCNC(=O)CCCCCNC(=O)CCCCCNC(=O)c1cccc(-c2ccc(OCC(=O)NCCNC(=O)CCCOC3O[C@@H](C)C(O)C(O)[C@@H]3O)cc2)c1)C(=O)N[C@H](C(=O)N[C@@H](CCN)C(=O)N[C@H]1CCNC(=O)[C@H]([C@@H](C)O)NC(=O)[C@H](CCN)NC(=O)[C@H](CCN)NC(=O)[C@H](CC(C)C)NC(=O)[C@@H](Cc2ccccc2)NC(=O)[C@H](CCN)NC1=O)[C@@H](C)O` (stereo partly drawn) [Example 5] (Nonanoyl-[Dab]([Ahx-Ahx-X3])T[Dab][Dab][Dab][dF]L[Dab][Dab]T; lactam 4-C), the “IgG Recruitment (40 μM, Average fold change)” value in experiment [1] is 8.45 fold change. Moreover, in experiment [2], the “C3b deposition (5 μM, Average fold change)” value is 20.5 fold change.

For `CC[C@H](C)CCCCC(=O)N[C@@H](CCN)C(=O)N[C@H](C(=O)N[C@@H](CCN)C(=O)N[C@H]1CCNC(=O)[C@H]([C@@H](C)O)NC(=O)[C@H](CCN)NC(=O)[C@H](CCN)NC(=O)[C@H](CC(C)C)NC(=O)[C@@H](Cc2ccccc2)NC(=O)[C@H](CCN)NC1=O)[C@@H](C)O` [Polymyxin B, reference compound] (X2-[Dab]T[Dab][Dab][Dab][dF]L[Dab][Dab]T; lactam 4-C), in experiment [1], the “IgG Recruitment (40 μM, Average fold change)” value is 1.58 fold change. In addition, the “C3b deposition (Average fold change)” value in experiment [2] (20 μM PmxB) is given as 24.535 fold change.
